According to PubChem BioAssay AID330 (DTP/NCI, 2004):
Toxic doses and inconclusive results are not listed.

Tested on: P388 leukemia ip, CD2F1 mice, survival T/C
Experiment: NCI In Vivo Anticancer Drug Screen. Data for tumor model P388 Leukemia (intraperitoneal) in CD2F1 (CDF1) mice
Details: endpoint: median survival time, higher = longer survival
Outline: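 Mice carrying the transplanted tumor received test compound or vehicle. Survival was recorded in each group, and the value is the treated-group measurement divided by that of the vehicle-treated control group.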

[1] = dose: 60.0 mg/kg/injection, schedule: Q01DX005 (ip), vehicle: Klucel (hydroxypropylcellulose) (HPC)
[2] = dose: 100.0 mg/kg/injection, schedule: Q04DX003 (ip), vehicle: Klucel (hydroxypropylcellulose) (HPC)
[3] = dose: 200.0 mg/kg/injection, schedule: Q04DX003 (ip), vehicle: Klucel (hydroxypropylcellulose) (HPC)
[4] = dose: 50.0 mg/kg/injection, schedule: Q01DX009 (ip), vehicle: saline with Tween-80
[5] = dose: 60.0 mg/kg/injection, schedule: Q01DX005 (ip), vehicle: saline
[6] = dose: 120.0 mg/kg/injection, schedule: Q01DX005 (ip), vehicle: saline

Question: How did the T/C (dose: 0.07 mg/kg/injection, schedule: Q01DX009 (ip), vehicle: saline) turn out when `COc1ccc2c(Nc3ccc(NS(C)(=O)=O)cc3)c3ccccc3nc2c1` was run?
Answer: The T/C was 99 % of control.

Question: What about the T/C (dose: 0.1 mg/kg/injection, schedule: Q01DX009 (ip), vehicle: saline) of the same compound?
Answer: Its T/C is 113 % of control.

Question: What about the T/C (dose: 0.15 mg/kg/injection, schedule: Q01DX009 (ip), vehicle: saline) of the same compound?
Answer: The T/C was 116 % of control.

Question: What about the T/C (dose: 0.23 mg/kg/injection, schedule: Q01DX009 (ip), vehicle: saline) of the same compound?
Answer: The T/C was 122 % of control.

Question: And the T/C (dose: 1.1 mg/kg/injection, schedule: Q04DX003 (ip), vehicle: saline with Tween-80)?
Answer: Its T/C is 119 % of control.

Question: What about the T/C (dose: 2.5 mg/kg/injection, schedule: Q01DX009 (ip), vehicle: saline with Tween-80) of the same compound?
Answer: The T/C was 164 % of control.

Question: And the T/C (dose: 5.0 mg/kg/injection, schedule: Q01DX009 (ip), vehicle: saline with Tween-80)?
Answer: Its T/C is 194 % of control.

Question: And the T/C (dose: 9.38 mg/kg/injection, schedule: Q01DX009 (ip), vehicle: saline with Tween-80)?
Answer: The T/C was 218 % of control.

Question: And the T/C (dose: 10.0 mg/kg/injection, schedule: Q01DX009 (ip), vehicle: saline with Tween-80)?
Answer: Its T/C is 270 % of control.

Question: What about the T/C (dose: 13.2 mg/kg/injection, schedule: Q04DX003 (ip), vehicle: saline with Tween-80) of the same compound?
Answer: The T/C was 163 % of control.

Question: And the T/C (dose: 18.7 mg/kg/injection, schedule: Q01DX009 (ip), vehicle: saline with Tween-80)?
Answer: The T/C was 97 % of control.

Question: What about the T/C (dose: 20.0 mg/kg/injection, schedule: Q04DX003 (ip), vehicle: saline with Tween-80) of the same compound?
Answer: Its T/C is 168 % of control.

Question: What about the T/C (dose: 22.0 mg/kg/injection, schedule: Q04DX003 (ip), vehicle: saline with Tween-80) of the same compound?
Answer: Its T/C is 175 % of control.

Question: And the T/C (dose: 30.0 mg/kg/injection, schedule: Q04DX003 (ip), vehicle: saline with Tween-80)?
Answer: The T/C was 200 % of control.

Question: And the T/C (dose: 33.0 mg/kg/injection, schedule: Q04DX003 (ip), vehicle: saline with Tween-80)?
Answer: The T/C was 204 % of control.

Question: And the T/C (dose: 50.0 mg/kg/injection, schedule: Q04DX003 (ip), vehicle: saline with Tween-80)?
Answer: Its T/C is 216 % of control.

Question: What about the T/C (dose: 75.0 mg/kg/injection, schedule: Q04DX003 (ip), vehicle: saline with Tween-80) of the same compound?
Answer: The T/C was 237 % of control.

Question: What does the source list for `Cc1cc(N)nc2cc(N)ccc12`?
Answer: T/C (dose: 15.0 mg/kg/injection, schedule: Q01DX005 (ip), vehicle: Klucel (hydroxypropylcellulose) (HPC)): 89 % of control; T/C (dose: 30.0 mg/kg/injection, schedule: Q01DX005 (ip), vehicle: Klucel (hydroxypropylcellulose) (HPC)): 99 % of control; T/C [1]: 98 % of control

Question: Which results are given for `CS/C(=C1/C(=O)N(c2ccccc2)N=C1c1ccc(C)cc1)N1CC1`?
Answer: T/C [2]: 91 % of control; T/C [3]: 94 % of control; T/C (dose: 400.0 mg/kg/injection, schedule: Q04DX003 (ip), vehicle: Klucel (hydroxypropylcellulose) (HPC)): 94 % of control

Question: With `Nc1nc(N)c2c(n1)NC(=O)CC2c1ccccc1` (configuration not stated) as the compound, how does the T/C (dose: 60.0 mg/kg/injection, schedule: Q01DX005 (ip), vehicle: saline with Tween-80) read?
Answer: Its T/C is 97 % of control.

Question: And the T/C (dose: 120.0 mg/kg/injection, schedule: Q01DX005 (ip), vehicle: saline with Tween-80)?
Answer: The T/C was 90 % of control.

Question: What about the T/C (dose: 240.0 mg/kg/injection, schedule: Q01DX005 (ip), vehicle: saline with Tween-80) of the same compound?
Answer: Its T/C is 90 % of control.

Question: What does the source list for `O=C(Oc1cc([N+](=O)[O-])cc([N+](=O)[O-])c1)C(c1ccccc1)c1ccccc1`?
Answer: T/C (dose: 12.5 mg/kg/injection, schedule: Q01DX009 (ip), vehicle: saline with Tween-80): 106 % of control; T/C (dose: 25.0 mg/kg/injection, schedule: Q01DX009 (ip), vehicle: saline with Tween-80): 112 % of control; T/C [4]: 118 % of control

Question: What does the source list for `CC(=O)OC(C(=O)OC1C[C@]2(O)C(OC(=O)c3ccccc3)C3[C@@]4(OC(C)=O)CO[C@H]4C[C@@H](OC(C)=O)[C@]3(C)C(=O)[C@@H](OC(C)=O)C(=C1C)C2(C)C)C(NC(=O)c1ccccc1)c1ccccc1` (some centres not stated)?
Answer: T/C (dose: 5.0 mg/kg/injection, schedule: Q01DX009 (ip), vehicle: Klucel (hydroxypropylcellulose) (HPC)): 99 % of control; T/C (dose: 10.0 mg/kg/injection, schedule: Q01DX009 (ip), vehicle: Klucel (hydroxypropylcellulose) (HPC)): 105 % of control; T/C (dose: 20.0 mg/kg/injection, schedule: Q01DX009 (ip), vehicle: Klucel (hydroxypropylcellulose) (HPC)): 100 % of control; T/C (dose: 40.0 mg/kg/injection, schedule: Q01DX009 (ip), vehicle: Klucel (hydroxypropylcellulose) (HPC)): 104 % of control

Question: Which results are given for `NC(N)=NC(N)=Nc1ccc([As](=O)(O)O)c(O)c1`?
Answer: T/C (dose: 22.5 mg/kg/injection, schedule: Q01DX009 (ip), vehicle: saline): 105 % of control; T/C (dose: 25.0 mg/kg/injection, schedule: Q01DX009 (ip), vehicle: saline sonified): 118 % of control; T/C (dose: 33.0 mg/kg/injection, schedule: Q01DX009 (ip), vehicle: saline): 104 % of control; T/C (dose: 45.0 mg/kg/injection, schedule: Q01DX009 (ip), vehicle: saline): 104 % of control; T/C (dose: 50.0 mg/kg/injection, schedule: Q01DX009 (ip), vehicle: saline sonified): 118 % of control; T/C (dose: 50.0 mg/kg/injection, schedule: Q01DX009 (ip), vehicle: saline): 109 % of control; T/C (dose: 75.0 mg/kg/injection, schedule: Q01DX009 (ip), vehicle: saline): 122 % of control; T/C (dose: 90.0 mg/kg/injection, schedule: Q01DX009 (ip), vehicle: saline): 115 % of control; T/C (dose: 180.0 mg/kg/injection, schedule: Q01DX009 (ip), vehicle: saline): 117 % of control; T/C (dose: 360.0 mg/kg/injection, schedule: Q01DX009 (ip), vehicle: saline): 103 % of control

Question: `N#CC[N+]1(Cc2ccccn2)CCCC1` was tested. Which T/C [5] did it give?
Answer: The T/C was 101 % of control.

Question: What about the T/C [6] of the same compound?
Answer: Its T/C is 108 % of control.

Question: For `C[C@]12C=CC(=O)C=C1CC[C@H]1[C@@H]3C[C@@H](O)[C@](O)(C(=O)CO)[C@@]3(C)C[C@H](O)[C@@]12F`, which T/C [2] is on record?
Answer: Its T/C is 100 % of control.

Question: And the T/C [3]?
Answer: The T/C was 90 % of control.

Question: `COC(=O)C1=COC(OC2OC(CO)C(O)C(O)C2O)C2C(C)C(O)C(OC(=O)/C=C/c3ccc(OC)cc3)C12` (configuration not stated) was tested. Which T/C (dose: 9.38 mg/kg/injection, schedule: Q01DX005 (ip), vehicle: Klucel (hydroxypropylcellulose) (HPC)) did it give?
Answer: The T/C was 96 % of control.

Question: What about the T/C (dose: 37.5 mg/kg/injection, schedule: Q01DX005 (ip), vehicle: Klucel (hydroxypropylcellulose) (HPC)) of the same compound?
Answer: The T/C was 88 % of control.

Question: And the T/C [1]?
Answer: Its T/C is 93 % of control.

Question: What about the T/C (dose: 75.0 mg/kg/injection, schedule: Q01DX005 (ip), vehicle: Klucel (hydroxypropylcellulose) (HPC)) of the same compound?
Answer: The T/C was 88 % of control.

Question: What about the T/C (dose: 120.0 mg/kg/injection, schedule: Q01DX005 (ip), vehicle: Klucel (hydroxypropylcellulose) (HPC)) of the same compound?
Answer: Its T/C is 93 % of control.

Question: What about the T/C (dose: 240.0 mg/kg/injection, schedule: Q01DX005 (ip), vehicle: Klucel (hydroxypropylcellulose) (HPC)) of the same compound?
Answer: The T/C was 86 % of control.

Question: `O=c1c(/C=C\Nc2ccccc2)c(-c2ccccc2)c1=O` was tested. Which T/C (dose: 100.0 mg/kg/injection, schedule: Q01DX001 (ip), vehicle: saline with Tween-80) did it give?
Answer: The T/C was 100 % of control.

Question: What about the T/C (dose: 200.0 mg/kg/injection, schedule: Q01DX001 (ip), vehicle: saline with Tween-80) of the same compound?
Answer: Its T/C is 92 % of control.

Question: What about the T/C (dose: 400.0 mg/kg/injection, schedule: Q01DX001 (ip), vehicle: saline with Tween-80) of the same compound?
Answer: The T/C was 92 % of control.

Question: `O=C1NC(=O)C2(c3ccccc3)CCN1C2=O` (configuration not stated) was tested. Which T/C (dose: 50.0 mg/kg/injection, schedule: Q01DX009 (ip), vehicle: Klucel (hydroxypropylcellulose) (HPC)) did it give?
Answer: The T/C was 103 % of control.

Question: And the T/C (dose: 100.0 mg/kg/injection, schedule: Q01DX009 (ip), vehicle: Klucel (hydroxypropylcellulose) (HPC))?
Answer: Its T/C is 110 % of control.

Question: What about the T/C (dose: 200.0 mg/kg/injection, schedule: Q01DX009 (ip), vehicle: Klucel (hydroxypropylcellulose) (HPC)) of the same compound?
Answer: The T/C was 104 % of control.

Question: Which T/C [4] does the source give for `COC1/C=C/OC2(C)Oc3c(C)c(O)c4c(O)c(c(C5SCCS5)c(O)c4c3C2=O)NC(=O)/C(C)=C\C=C\C(C)C(O)C(C)C(O)C(C)C(O)C1C` (configuration not stated) here?
Answer: The T/C was 97 % of control.

Question: What about the T/C (dose: 100.0 mg/kg/injection, schedule: Q01DX009 (ip), vehicle: saline with Tween-80) of the same compound?
Answer: Its T/C is 102 % of control.

Question: What about the T/C (dose: 200.0 mg/kg/injection, schedule: Q01DX009 (ip), vehicle: saline with Tween-80) of the same compound?
Answer: The T/C was 96 % of control.

Question: Which results are given for `CC1OC(Sc2ncc[nH]2)C(O)C(O)C1O` (configuration not stated)?
Answer: T/C [5]: 95 % of control; T/C [6]: 94 % of control; T/C (dose: 240.0 mg/kg/injection, schedule: Q01DX005 (ip), vehicle: saline): 100 % of control

Question: For `OCc1ccc2c(c1)CCC2`, which T/C (dose: 50.0 mg/kg/injection, schedule: Q01DX009 (ip), vehicle: other) is on record?
Answer: Its T/C is 100 % of control.

Question: For `CN(CC[n+]1cccc(C(N)=O)c1)N=O`, which T/C (dose: 100.0 mg/kg/injection, schedule: Q01DX001 (ip), vehicle: saline) is on record?
Answer: Its T/C is 108 % of control.

Question: What about the T/C (dose: 200.0 mg/kg/injection, schedule: Q01DX001 (ip), vehicle: saline) of the same compound?
Answer: Its T/C is 100 % of control.

Question: What about the T/C (dose: 400.0 mg/kg/injection, schedule: Q01DX001 (ip), vehicle: saline) of the same compound?
Answer: Its T/C is 107 % of control.

Question: For `C=CC1CC(NC(=O)OCCCC)C(=O)O1` (configuration not stated), which T/C (dose: 50.0 mg/kg/injection, schedule: Q01DX005 (ip), vehicle: saline with Tween-80) is on record?
Answer: The T/C was 99 % of control.

Question: And the T/C (dose: 100.0 mg/kg/injection, schedule: Q01DX005 (ip), vehicle: saline with Tween-80)?
Answer: Its T/C is 101 % of control.

Question: What about the T/C (dose: 200.0 mg/kg/injection, schedule: Q01DX005 (ip), vehicle: saline with Tween-80) of the same compound?
Answer: The T/C was 102 % of control.
